Laboratory results as given in article PMC8241022 (Drug Delivery, 2017).
Read-outs that look alike come from different tables or passages of the source. Marks after values point to notes of the source that are not given here.

Experiments:
[1] = for dexamethasone concentration, Choroidal/retinal compound / dexamethasone concentration, Sclera / dexamethasone concentration, Vitreum: IV: intravenous injection of 1 mg/kg DEXP, mean ± SD, n=6
Procedure: (§1) Male and female New Zealand albino rabbits (about four months old and weighing 2.0–2.5 kg) were acquired from the Third Xiangya Hospital of Central South University (Changsha, China). All rabbits were examined thoroughly, and no ocular disease, then were randomly allocated to different groups for subsequent ocular PK studies. Animals were anesthetized by intramuscularly injecting Xylazine Hydrochloride Injection (2 ml:0.2 g, Huamu Animal Health Products Co., Jilin, 0.1–0.2 ml/kg) and dropped Oxybuprocaine Hydrochloride Eye Drops (20 ml:80 mg, Sa) three times, interval 2 min per time.
(§2) Rabbits were randomly divided into three groups and six rabbits for each group per time point. […] After the last instillation in IV group (1 h, 3 h, 6 h, 12 h, 24 h) and SC injection group (1 h, 2 h, 3 h, 4 h, 6 h, 8 h, 12 h, 24 h), respectively, the ocular tissue were collected. […] Animals were euthanized by 3 ml lidocaine (3 ml/rabbit) and 3 ml air intravenously, immediately after death, ocular tissues were collected. Vitreous, choroid/retina and sclera were dissected and weighted as the solid tissues, the samples were stored at −20 °C and then processed for analysis.
(§3) Frozen rabbit samples were thawed at ambient temperature, the solid samples were fixed with 400 ml 0.9% normal saline (NS) and homogenized. A 100 μl aliquot of Triamcinolone diacetate (I.S. 200 ng/ml) standard solution was added to 100 μl of each fluid sample and 400 μl 0.9% NS or homogenized samples. After a thorough vortex mixing for 30 s, the mixture was extracted with 1 ml n-hexane and acetate ester (1:1, v/v) for 60 min, the mixture was centrifuged at 14 000 rpm for 5 min. The organic layer was removed and evaporated under a gentle stream nitrogen gas at 45 °C until it was completely dry. The dried residue was dissolved with 50 μl mobile phase. After centrifugation, 5 μl of the clear supernatant was injected into the LC–MS system: LC-10AD VP low pressure gradient pump, CTO-10A VP column temperature oven, SCL-10AD VP system controller, and LC-MS chemstation. Separation was achieved on a Thermo Hypersil-Hypurity C18 column (150 mm × 2.1 mm, i.d., 5 μm, USA) at 40 °C. […] The operating parameters of ESI–MS (electrospray ionization–mass spectrometry) were as follows: capillary voltage was 4.5 kV; nebulizer nitrogen gas flow-rate was 1.5 l/min; drying N2 flow was 10 l/min; drying gas temperature was 250 °C, the gas used was of high purity, and system control and data evaluation were carried out using LC-MS chemstation (Japan). […] Quantitation was performed by a linear regression analysis of peak areas ratio from a standard curve containing seven standard points.
(§4) The following pharmacokinetic parameters were obtained: peak concentration (Cmax), time to peak concentration (Tmax), elimination half-life (T1/2), area under the concentration–time curve between 0 and 24 h (AUC0–24).
(§5) Tissue concentrations were analyzed using one-way analysis of variance (ANOVA). If there were differences in three groups, we used Dunnett T3 to analyze two groups. All other results were descriptive measures. Statistical significance was accepted at a level of p < 0.05.

in vivo [2] = details: both, New Zealand albino, rabbit; for Tmax: CCSDD group, 0.3 ml (5 mg/ml) DEXP then 0.1 ml/h for 10 h
Procedure: as §1, §2, §3, §4, §5

[3] = for dexamethasone concentration, Choroidal/retinal compound / dexamethasone concentration, Sclera / dexamethasone concentration, Vitreum: CCSDD: first dose 0.3 ml (5 mg/ml) DEXP, then 0.1 ml/h for 10 h, mean ± SD, n=6
Procedure: as §1, §2, §3, §4, §5

[4] = SC: subconjunctival injection of 0.3 ml (5 mg/ml) DEXP, mean ± SD, n=6
Procedure: as §1, §2, §3, §4, §5

in vivo [5] = details: both, New Zealand albino, rabbit, iv, 1 mg/kg
Procedure: as §1, §2, §3, §4, §5

With C[C@@H]1C[C@H]2[C@@H]3CCC4=CC(=O)C=C[C@]4(C)[C@@]3(F)[C@@H](O)C[C@]2(C)[C@@]1(O)C(=O)CO [dexamethasone] the “AUC0–24, choroid/retinal compound” value ([1]; IV route, rabbit) was 1571.71 ng·h/g, the “AUC0–24, sclera” value ([1]; IV route, rabbit) was 2858.71 ng·h/g and the “dexamethasone concentration, Choroidal/retinal compound” value ([1]; 1 h) was 140.57 ± 34.56^a. For the same compound, the “dexamethasone concentration, Sclera” value ([1]; 1 h) was 281.42 ± 60.13^a, the “dexamethasone concentration, Vitreum” value ([1]; 1 h) was 43.78 ± 2.62 and the “dexamethasone concentration, Sclera” value ([1]; 3 h) was 402.99 ± 96.49^a. The “dexamethasone concentration, Vitreum” value ([1]; 3 h) was 30.08 ± 2.55^a, the “dexamethasone concentration, Choroidal/retinal compound” value ([1]; 6 h) was 90.75 ± 12.08^a and the “dexamethasone concentration, Sclera” value ([1]; 6 h) was 141.57 ± 31.46^a. For the same compound, the “dexamethasone concentration, Vitreum” value ([1]; 6 h) was 21.53 ± 2.66^a, the “dexamethasone concentration, Choroidal/retinal compound” value ([1]; 12 h) was 38.94 ± 13.00^a and the “dexamethasone concentration, Sclera” value ([1]; 12 h) was 64.38 ± 11.83^a. For the same compound, the “dexamethasone concentration, Vitreum” value ([1]; 12 h) was 5.34 ± 5.11^a, the “dexamethasone concentration, Choroidal/retinal compound” value ([1]; 24 h) was 3.71 ± 4.50^a and the “dexamethasone concentration, Sclera” value ([1]; 24 h) was 22.23 ± 7.44^a. The “dexamethasone concentration, Vitreum” value ([1]; 24 h) was 1.37 ± 2.14^a, the Cmax (in vivo [2]; choroid/retina) was 3220 ng/g and the Cmax (in vivo [2]; in vivo, topical or ocular, 6.5 mg) was 71 ng/mL. For the same compound, the Tmax (in vivo [2]; in vivo, topical or ocular, 6.5 mg, Choroidal/retinal compound) was 3 h, the Tmax (in vivo [2]; in vivo, topical or ocular, 6.5 mg, Sclera) was 1 h and the Tmax (in vivo [2]; in vivo, topical or ocular, 6.5 mg, Vitreum) was 1 h. The Cmax (in vivo [2]; sclera) was 11200 ng/g, the AUC(0-t) (in vivo [2]; vitreous, topical or ocular, 6.5 mg) was 1410 ng·h/mL and the “AUC0–24, choroid/retinal compound” value ([3]; CCSDD administration, rabbit) was 41400.70 ng·h/g. For the same compound, the “AUC0–24, sclera” value ([3]; CCSDD administration, rabbit) was 93577.80 ng·h/g, the “dexamethasone concentration, Choroidal/retinal compound” value ([3]; 1 h after first dose) was 2522.46 ± 425.94 and the “dexamethasone concentration, Sclera” value ([3]; 1 h after first dose) was 11192.22 ± 5302.51. For the same compound, the “dexamethasone concentration, Vitreum” value ([3]; 1 h after first dose) was 71.05 ± 30.23, the “dexamethasone concentration, Choroidal/retinal compound” value ([3]; 3 h after first dose) was 3291.35 ± 438.11 and the “dexamethasone concentration, Sclera” value ([3]; 3 h after first dose) was 9785.20 ± 1964.12. The “dexamethasone concentration, Vitreum” value ([3]; 3 h after first dose) was 57.23 ± 12.34, the “dexamethasone concentration, Choroidal/retinal compound” value ([3]; 6 h after first dose) was 2331.09 ± 454.41 and the “dexamethasone concentration, Sclera” value ([3]; 6 h after first dose) was 6215.17 ± 1871.83. For the same compound, the “dexamethasone concentration, Vitreum” value ([3]; 6 h after first dose) was 50.23 ± 13.77, the “dexamethasone concentration, Choroidal/retinal compound” value ([3]; 10 h after first dose) was 1796.19 ± 380.36 and the “dexamethasone concentration, Sclera” value ([3]; 10 h after first dose) was 4053.03 ± 1330.47. For the same compound, the “dexamethasone concentration, Vitreum” value ([3]; 10 h after first dose) was 50.51 ± 8.40, the “dexamethasone concentration, Choroidal/retinal compound” value ([3]; 11 h after first dose) was 1518.52 ± 332.81 and the “dexamethasone concentration, Sclera” value ([3]; 11 h after first dose) was 3857.47 ± 1508.05. For the same compound, the “dexamethasone concentration, Vitreum” value ([3]; 11 h after first dose) was 42.84 ± 6.24, the “dexamethasone concentration, Choroidal/retinal compound” value ([3]; 12 h after first dose) was 1191.62 ± 303.29 and the “dexamethasone concentration, Sclera” value ([3]; 12 h after first dose) was 1913.73 ± 389.28. For the same compound, the “dexamethasone concentration, Vitreum” value ([3]; 12 h after first dose) was 33.52 ± 5.31, the “dexamethasone concentration, Choroidal/retinal compound” value ([3]; 16 h after first dose) was 988.97 ± 336.43 and the “dexamethasone concentration, Sclera” value ([3]; 16 h after first dose) was 1215.48 ± 449.07. For the same compound, the “dexamethasone concentration, Choroidal/retinal compound” value ([3]; 20 h after first dose) was 812.90 ± 188.26, the “dexamethasone concentration, Sclera” value ([3]; 20 h after first dose) was 906.40 ± 312.84 and the “dexamethasone concentration, Vitreum” value ([3]; 20 h after first dose) was 27.78 ± 3.26. The “dexamethasone concentration, Choroidal/retinal compound” value ([3]; 24 h after first dose) was 418.20 ± 97.81, the “dexamethasone concentration, Sclera” value ([3]; 24 h after first dose) was 484.52 ± 155.25 and the “dexamethasone concentration, Vitreum” value ([3]; 24 h after first dose) was 22.40 ± 4.38. The “dexamethasone concentration, Choroidal/retinal compound” value ([4]; 1 h) was 1881.83 ± 336.98^a, the “dexamethasone concentration, Sclera” value ([4]; 1 h) was 8604.95 ± 1597.26 and the “dexamethasone concentration, Vitreum” value ([4]; 1 h) was 63.19 ± 15.12. For the same compound, the “dexamethasone concentration, Choroidal/retinal compound” value ([4]; 2 h) was 3212.63 ± 796.76, the “dexamethasone concentration, Sclera” value ([4]; 2 h) was 6071.65 ± 737.76 and the “dexamethasone concentration, Vitreum” value ([4]; 2 h) was 80.45 ± 11.10. The “dexamethasone concentration, Choroidal/retinal compound” value ([4]; 3 h) was 3638.80 ± 580.05, the “dexamethasone concentration, Sclera” value ([4]; 3 h) was 4419.68 ± 1006.87^a and the “dexamethasone concentration, Vitreum” value ([4]; 3 h) was 73.77 ± 14.74. The “dexamethasone concentration, Choroidal/retinal compound” value ([4]; 4 h) was 1701.27 ± 551.90, the “dexamethasone concentration, Sclera” value ([4]; 4 h) was 2287.56 ± 742.66 and the “dexamethasone concentration, Vitreum” value ([4]; 4 h) was 39.65 ± 8.87. The “dexamethasone concentration, Choroidal/retinal compound” value ([4]; 6 h) was 1333.65 ± 469.43^a, the “dexamethasone concentration, Sclera” value ([4]; 6 h) was 1645.75 ± 631.69^a and the “dexamethasone concentration, Vitreum” value ([4]; 6 h) was 34.53 ± 6.89. For the same compound, the “dexamethasone concentration, Choroidal/retinal compound” value ([4]; 8 h) was 760.86 ± 177.74, the “dexamethasone concentration, Sclera” value ([4]; 8 h) was 1031.78 ± 443.14 and the “dexamethasone concentration, Vitreum” value ([4]; 8 h) was 28.29 ± 4.56. For the same compound, the “dexamethasone concentration, Sclera” value ([4]; 12 h) was 463.21 ± 136.14^a, the “dexamethasone concentration, Vitreum” value ([4]; 12 h) was 22.68 ± 5.40^a and the “dexamethasone concentration, Choroidal/retinal compound” value ([4]; 24 h) was 184.59 ± 94.86^a. For the same compound, the “dexamethasone concentration, Sclera” value ([4]; 24 h) was 237.94 ± 139.25^a, the “dexamethasone concentration, Vitreum” value ([4]; 24 h) was 3.71 ± 4.31^a and the Cmax (in vivo [5]; choroid/retina) was 285 ng/g. The Tmax (in vivo [5]; choroid/retina) was 3 h, the Cmax (in vivo [5]; sclera) was 403 ng/g and the Tmax (in vivo [5]; sclera) was 3 h. It also gave an AUC(0-t) (in vivo [5]; vitreous) of 285 ng·h/mL, a Cmax (in vivo [5]; vitreous) of 43.8 ng/mL and a Tmax (in vivo [5]; vitreous) of 1 h.
